From US9096591B2, “Tetracyclic compounds” (Medivation Technologies, Inc., priority 2007, dated 2015)

Columns and labels:
[1] = system: adrenergic receptors α1D, α2A, α2B; serotonin receptor 5-HT6; dopamine receptor D2L; experiment: Classification of compounds (Type 1-4) from receptor binding and neurite outgrowth
From the text: Compounds of the invention that inhibit binding of a ligand to adrenergic receptors α1D, α2A, α2B and serotonin receptor 5-HT6 by at least about 80% as determined in a suitable assay such as the assays described herein can be classified as Type 1 compounds. […] In one variation, binding of a ligand to serotonin receptor 5-HT7 is at least about 80%. […] Weak inhibition of binding of a ligand to the histamine H1 receptor is permitted as agonists of this receptor have been implicated in stimulating memory as well as weight gain. In one variation, binding to histamine receptor H1 is inhibited by less than about 80%. […] Compounds that inhibit binding of a ligand to the dopamine D2L receptor by at least about 80% as determined in a suitable assay such as the assay described herein can be classified as Type 2 compounds.
In one variation, Type 1 compounds further inhibit binding of a ligand to dopamine receptor D2L by less than about 80% as determined in a suitable assay known in the art such as the assay described herein. […] In one variation, binding of a ligand to serotonin receptor 5-HT7, 5-HT2A and/or 5-HT2C is inhibited by at least about 80% as determined in a suitable assay such as the assays described herein. […] In one variation, binding of a ligand to histamine receptor H1 and/or H2 is inhibited by less than about 80% as determined by a suitable assay known in the art such as the assays described herein.
In one variation, biding to serotonin receptor 5-HT2A is inhibited by at least about 80% as determined in a suitable assay know in the art such as the assay described herein.

[2] = system: rat brain mitochondria; experiment: Ca2+-induced swelling of mitochondria (MPT pore opening); type: biochemical, Wistar rats; conditions: rat brain mitochondria; for A540 increase in mitochondrial suspension after addition of 100 μM of compound: 100 μM compound; for IC50: read-out: IC50, Ca2+-induced (25-50 μM) swelling of brain mitochondria, Ca2+ 25-50 μM
Description: Rat liver and brain mitochondria were prepared from male Wistar rats. The rats were euthanized in a CO2 chamber followed by decapitation the procedure being in compliance with the Guidelines for Animal Experiments at IPAC RAS. […]
Brain mitochondria were isolated from the pooled forebrains of two rats. The modified method of Sims was used to isolate and purify brain mitochondria in a Percoll gradient. The brain was homogenized in “buffer A” (225 mM mannitol, 75 mM sucrose, 5 mM HEPES, 1 mM EGTA, pH 7.4 [KOH]) and centrifuged for 10 min at 1300 g. The supernatant was centrifuged for 10 min at 10000 g, and then the pellet was suspended in 15% Percoll and layered on a discontinuous gradient consisting of 40 and 23% Percoll, respectively, which was then centrifuged for 10 min at 30000 g without using brakes. The mitochondria were collected from the interface of the lower two layers and after resuspension in “buffer A”, the suspension was centrifuged at 16600 g for 10 min, then the pellet was resuspended in “buffer A”, BSA (10 mg/mL) was added to bind free fatty acids; and the suspensions was centrifuged again at 6300 g for 10 min. Following centrifugation the pelleted mitochondria were re-suspended in isolation medium without EGTA to achieve a protein concentration of 15-20 mg/ml.
Mitochondrial swelling caused by influx of solutes through open PT pores results in an increase in light transmission (i.e., a reduced turbidity). This turbidity change offers a convenient and frequently used assay of the MPT by measurement of absorbance in mitochondrial suspensions. In the present study, the MPT induced by Ca^2+ and inorganic phosphate (Ca/Pi) was monitored by absorbance changes at 540 nm in a cuvette in a Beckman DU 640 spectrophotometer in 1 ml of buffer A plus 0.8 μM rotenone, 5 mM succinate, 1 mM KH2PO4 and 0.5 mg or 0.2 mg protein of isolated liver or brain mitochondria, accordingly. Reaction was started by the addition of triggering agent (Ca^2+). Pre-treatment and reaction were performed at 30° C. Swelling rate was quantified as ΔA540/min/mg, calculated, in all cases, from a tangent to the steepest portion of the plot of A540 versus time.
Ca^2+-induced Swelling of mitochondria was used as the primary screening test for compounds influence on MPT pore opening. […] But the inhibition of swelling may be connected not only with direct inhibition of MPT pore opening but also with the impairment of respiratory function of mitochondria and with the compounds action on calcium transport into mitochondria. For the primary estimation of these possibilities the mitochondrial membrane potential and calcium retention capacity of mitochondria were measured. […] New synthesized compounds (except C-14 and C-43) alone induced an increase of brain mitochondria suspension turbidity. The mechanism of such effect needs additional investigations.

[3] = system: rat brain mitochondria; experiment: Mitochondrial membrane potential (safranine test); type: biochemical, Wistar rats; conditions: suggested from membrane potential and calcium retention data (Table 15)
Description: The same experimental conditions were used for the assessment of alterations of the mitochondrial membrane potential, except that safranine was included in incubation medium at a final concentration of 10 mkM and succinate was added before the compounds of the invention. This concentration of safranine was determined before hand as the optimal compromise between signal/baseline ratio and interference of safranine itself with swelling induced by Ca/Pi (safranine tended to enhance Ca/Pi-induced swelling at concentrations above 20 mkM). Changes in the status of the mPT pore were assessed spectrophotometrically at 554 and 524 nm in a cuvette in a Beckman DU 640 spectrophotometer. A554-524 represents the characteristics of mitochondrial potential and A554-characteristics of mitochondrial swelling.

[4] = system: mice; experiment: recognition test of new location of a known object (spatial memory); type: in vivo; conditions: for overall effect on memory (in words): doses 0.05-1 mg/kg

SMILES	compound type (classification by receptor binding profile and neurite outgrowth) [1]	A540 increase in mitochondrial suspension after addition of 100 μM of compound [2]	IC50 [2]	impairment of mitochondrial respiratory functions accompanying inhibition of MPT [3]	Influence on memory in the test recognition new localization of known object ([4]; Dose of Compound 0.05 mg/kg)	Influence on memory in the test recognition new localization of known object ([4]; Dose of Compound 0.1 mg/kg)	Influence on memory in the test recognition new localization of known object ([4]; Dose of Compound 0.5 mg/kg)	Influence on memory in the test recognition new localization of known object ([4]; Dose of Compound 1.0 mg/kg)	effect of the dose on exploration time / memory (in words) ([4]; mice, dose 0.05 mg/kg)	overall effect on memory (in words) ([4]; mice)	further results
CN1CCc2c(c3cc(I)ccc3n2CCc2ccccc2F)C1 [Compound 89, 5-(2-fluorophenethyl)-2,3,4,5-tetrahydro-8-iodo-2-methyl-1H-pyrido[4,3-b]indole]	Type one										
CCOc1ccc(CCn2c3c(c4cc(C)ccc42)CN(C)CC3)cc1 [Compound 334, 5-[2-(4-Ethoxy-phenyl)-ethyl]-2,8-dimethyl-2,3,4,5-tetrahydro-1H-pyrido[4,3-b]indole]	Type one										
Cc1ccc(CCn2c3c(c4cc(Br)ccc42)CN(C)CC3)cn1 [Compound 487, 8-bromo-2-methyl-5-(2-(6-methylpyridin-3-yl)ethyl)-2,3,4,5-tetrahydro-1H-pyrido[4,3-b]indole]	Type one										
Cc1ccc2c(c1)c1c(n2CCc2nc(-c3ccccc3)cs2)CCN(C)C1 [Compound C1-5]		30 rel.units	18 ± 16 µM	impairment of mitochondrial respiratory functions	−	+	−	+	no effect	stimulating effect on memory	activity on memory compared with dimebon (in words) ([4]; comparison of effective doses): at a level dimebon; time exploring the object in a new location, % of the total time ([4]; mice, dose 0.1 mg/kg): 57.9±7.5%; time exploring the object in the known position, % of the total time ([4]; mice, dose 0.1 mg/kg): 42.1±7.5%; effect of the dose on exploration time / memory (in words) ([4]; mice, dose 0.5 mg/kg): disappearance of the stimulating effect on memory; time exploring the object in a new location, % of the total time ([4]; mice, dose 1 mg/kg): 57.4±8.4%; time exploring the object in the known position, % of the total time ([4]; mice, dose 1 mg/kg): 42.6±8.4%
COc1ccc2c(c1)c1c(n2CCc2nc(-c3ccccc3)cs2)CCN(C)C1 [Compound C1-6]		1.5 rel.units	12.7 ± 6.2 µM								
CN1CCc2c(c3cc(F)ccc3n2CCc2nc(-c3ccccc3)cs2)C1 [Compound C1-7]		>30 rel.units	28 ± 6 µM								
CN1CCc2c(c3ccccc3n2CCc2noc(-c3ccccc3)n2)C1 [Compound C4-1]		10 rel.units	3.9 ± 1.6 µM	impairment of mitochondrial respiratory functions	−	+	−	−			
Cc1ccc2c(c1)c1c(n2CCc2noc(-c3ccccc3)n2)CCN(C)C1 [Compound C4-4]		14 rel.units	6.7 ± 1.2 µM	impairment of mitochondrial respiratory functions	−	+	+	+	no effect	activating effect on memory	time after training for which the activating effect on memory is preserved ([4]; mice): about 48 hours; time exploring the object in a new location, % of the total time ([4]; mice, dose 0.1 mg/kg): 58.5±9.6%; time exploring the object in the known position, % of the total time ([4]; mice, dose 0.1 mg/kg): 41.5±9.6%; time exploring the object in a new location, % of the total time ([4]; mice, dose 0.5 mg/kg): 59.1±4.2%; time exploring the object in the known position, % of the total time ([4]; mice, dose 0.5 mg/kg): 40.9±4.2%
CN1CCc2c(c3cc(Cl)ccc3n2CCc2noc(-c3ccccc3)n2)C1 [Compound C4-6]		28 rel.units	6 ± 1.2 µM	impairment of mitochondrial respiratory functions	−	−	+	+	not effective	stimulated memory	activity on memory: times weaker than dimebon ([4]; comparison of effective doses): approximately 5 times; effect of the dose on exploration time / memory (in words) ([4]; mice, dose 0.1 mg/kg): not effective; time exploring the object in a new location, % of the total time ([4]; mice, dose 0.5 mg/kg): 61.0±4.8%; time exploring the object in the known position, % of the total time ([4]; mice, dose 0.5 mg/kg): 39.0±4.8%; time exploring the object in a new location, % of the total time ([4]; mice, dose 1 mg/kg): 56.3±7.7%; time exploring the object in the known position, % of the total time ([4]; mice, dose 1 mg/kg): 43.7±7.7%
